Measured values as given in US20230278972A1, “SUBSTITUTED HALOALKYL SULFONANILIDE HERBICIDES” (FMC Corporation, priority 2020, published 2023).

Assays:
Type in all cases: in vivo
[1] = system: barnyardgrass (Echinochloa crus-galli); assay: Test A preemergence, barnyardgrass; settings: Preemergence; for Barnyardgrass plant response rating: 125 g ai/ha, visual injury on 0 to 100 scale (0 no effect, 100 complete control), approximately 10 days; for Plant response rating, Barnyardgrass: 500 g ai/ha, 0 to 100 scale (0 no effect, 100 complete control)
Source text: (§1) Seeds of plant species selected from barnyardgrass (Echinochloa crus-galli), kochia (Bassia scoparia), ragweed (common ragweed, Ambrosia artemisiifolia), Ryegrass, Italian (Italian ryegrass, Lolium multiflorum), Foxtail, Giant (giant foxtail, Setaria faberi), and pigweed (Amaranthus retroflexus) were planted into a blend of loam soil and sand and treated preemergence with a directed soil spray using test chemicals formulated in a non-phytotoxic solvent mixture which included a surfactant. At the same time, plants selected from these weed species and also wheat (Triticum aestivum), corn (Zea mays), blackgrass (Alopecurus myosuroides), and galium (catchweed bedstraw, Galium aparine) were planted in pots containing the same blend of loam soil and sand and treated with postemergence applications of test chemicals formulated in the same manner. Plants ranged in height from 2 to 10 cm and were in the one- to two-leaf stage for the postemergence treatment. […] A dash (-) response means no test result.

kochia (Bassia scoparia) [2] = assay: Test A preemergence, kochia; settings: Preemergence; for Kochia plant response rating: 125 g ai/ha, visual injury on 0 to 100 scale (0 no effect, 100 complete control), approximately 10 days; for Plant response rating, Kochia: 500 g ai/ha, 0 to 100 scale (0 no effect, 100 complete control)
Source text: as §1

[3] = system: ragweed (common ragweed, Ambrosia artemisiifolia); assay: Test A preemergence, ragweed; settings: Preemergence; for Ragweed plant response rating: 125 g ai/ha, visual injury on 0 to 100 scale (0 no effect, 100 complete control), approximately 10 days; for Plant response rating, Ragweed: 500 g ai/ha, 0 to 100 scale (0 no effect, 100 complete control)
Source text: as §1

[4] = system: Ryegrass, Italian (Italian ryegrass, Lolium multiflorum); assay: Test A preemergence, Ryegrass, Italian; settings: Preemergence; for Ryegrass, Italian plant response rating: 125 g ai/ha, visual injury on 0 to 100 scale (0 no effect, 100 complete control), approximately 10 days; for Plant response rating, Ryegrass, Italian: 500 g ai/ha, 0 to 100 scale (0 no effect, 100 complete control)
Source text: as §1

[5] = system: Foxtail, Giant (giant foxtail, Setaria faberi); assay: Test A preemergence, Foxtail, Giant; settings: Preemergence; for Foxtail, Giant plant response rating: 125 g ai/ha, visual injury on 0 to 100 scale (0 no effect, 100 complete control), approximately 10 days; for Plant response rating, Foxtail, Giant: 500 g ai/ha, 0 to 100 scale (0 no effect, 100 complete control)
Source text: as §1

[6] = system: barnyardgrass (Echinochloa crus-galli); assay: Test A postemergence, barnyardgrass; settings: Postemergence, 0 to 100 scale (0 no effect, 100 complete control); for Plant response rating, Barnyardgrass: 125 g ai/ha, visual injury approx. 10 days; for Barnyardgrass plant response rating: 500 g ai/ha, visual injury vs untreated controls after approx. 10 days
Source text: as §1

kochia (Bassia scoparia) [7] = assay: Test A postemergence, kochia; settings: Postemergence, 0 to 100 scale (0 no effect, 100 complete control); for Plant response rating, Kochia: 125 g ai/ha, visual injury approx. 10 days; for Kochia plant response rating: 500 g ai/ha, visual injury vs untreated controls after approx. 10 days
Source text: as §1

[8] = system: ragweed (common ragweed, Ambrosia artemisiifolia); assay: Test A postemergence, ragweed; settings: Postemergence, 0 to 100 scale (0 no effect, 100 complete control); for Plant response rating, Ragweed: 125 g ai/ha; for Ragweed plant response rating: 500 g ai/ha, visual injury vs untreated controls after approx. 10 days
Source text: as §1

[9] = system: Ryegrass, Italian (Italian ryegrass, Lolium multiflorum); assay: Test A postemergence, Ryegrass, Italian; settings: Postemergence, 0 to 100 scale (0 no effect, 100 complete control); for Plant response rating, Ryegrass, Italian: 125 g ai/ha; for Ryegrass, Italian plant response rating: 500 g ai/ha, visual injury vs untreated controls after approx. 10 days
Source text: as §1

[10] = system: Foxtail, Giant (giant foxtail, Setaria faberi); assay: Test A postemergence, Foxtail, Giant; settings: Postemergence, 0 to 100 scale (0 no effect, 100 complete control); for Plant response rating, Foxtail, Giant: 125 g ai/ha, visual injury approx. 10 days; for Foxtail, Giant plant response rating: 500 g ai/ha, visual injury vs untreated controls after approx. 10 days
Source text: as §1

[11] = system: pigweed (Amaranthus retroflexus); assay: Test A postemergence, pigweed; settings: Postemergence, 0 to 100 scale (0 no effect, 100 complete control); for Plant response rating, Pigweed: 125 g ai/ha; for Pigweed plant response rating: 500 g ai/ha, visual injury vs untreated controls after approx. 10 days
Source text: as §1

[12] = system: wheat (Triticum aestivum); assay: Test A postemergence, wheat; settings: Postemergence, 0 to 100 scale (0 no effect, 100 complete control); for Plant response rating, Wheat: 125 g ai/ha; for Wheat plant response rating: 500 g ai/ha, visual injury vs untreated controls after approx. 10 days
Source text: as §1

corn (Zea mays) = assay: Test A postemergence, corn; settings: Postemergence, 0 to 100 scale (0 no effect, 100 complete control); for Plant response rating, Corn: 125 g ai/ha, visual injury approx. 10 days; for Corn plant response rating: 500 g ai/ha, visual injury vs untreated controls after approx. 10 days
Source text: as §1

[13] = system: blackgrass (Alopecurus myosuroides); assay: Test A postemergence, blackgrass; settings: Postemergence, 0 to 100 scale (0 no effect, 100 complete control); for Plant response rating, Blackgrass: 125 g ai/ha, visual injury approx. 10 days; for Blackgrass plant response rating: 500 g ai/ha, visual injury vs untreated controls after approx. 10 days
Source text: as §1

[14] = system: galium (catchweed bedstraw, Galium aparine); assay: Test A postemergence, galium; settings: Postemergence, 0 to 100 scale (0 no effect, 100 complete control); for Plant response rating, Galium: 125 g ai/ha, visual injury approx. 10 days; for Galium plant response rating: 500 g ai/ha, visual injury vs untreated controls after approx. 10 days
Source text: as §1

Row | SMILES | Barnyardgrass plant response rating [1] | Plant response rating, Barnyardgrass [1] | Kochia plant response rating (kochia (Bassia scoparia) [2]) | Plant response rating, Kochia (kochia (Bassia scoparia) [2]) | Ragweed plant response rating [3] | Plant response rating, Ragweed [3] | Ryegrass, Italian plant response rating [4] | Plant response rating, Ryegrass, Italian [4] | Foxtail, Giant plant response rating [5] | Plant response rating, Foxtail, Giant [5] | Plant response rating, Barnyardgrass [6] | Barnyardgrass plant response rating [6] | Plant response rating, Kochia (kochia (Bassia scoparia) [7]) | Kochia plant response rating (kochia (Bassia scoparia) [7]) | Plant response rating, Ragweed ([8]; visual injury approx. 10 days) | Ragweed plant response rating [8] | Plant response rating, Ryegrass, Italian ([9]; visual injury approx. 10 days) | Ryegrass, Italian plant response rating [9] | Plant response rating, Foxtail, Giant [10] | Foxtail, Giant plant response rating [10] | also measured
1 | Cc1cc(C)c(C2=NOC(C(C)(C)C)C2)cc1NS(=O)(=O)C(F)(F)F (stereo not shown) [Compound 108] | 70 | 100 | 80 | 90 | 20 | 60 | 90 | 100 | 80 | 100 | 20 | 90 | 30 | 80 | 40 | 80 | 0 | 70 | 0 | 30 | Plant response rating, Pigweed ([11]; visual injury approx. 10 days): 0; Pigweed plant response rating [11]: 60; Plant response rating, Wheat ([12]; visual injury approx. 10 days): 30; Wheat plant response rating [12]: 70; Plant response rating, Corn (corn (Zea mays)): 0; Corn plant response rating (corn (Zea mays)): 50; Plant response rating, Blackgrass [13]: 0; Blackgrass plant response rating [13]: 50; Plant response rating, Galium [14]: 70; Galium plant response rating [14]: 90
2 | Cc1cc(C)c(N(S(=O)(=O)C(F)(F)F)S(=O)(=O)C(F)(F)F)cc1C1=NOC2(CCSCC2)C1 [Compound 114] | 50 | 80 | 30 | 70 | 0 | 10 | 70 | 90 | 90 | 100 | 20 | 70 | 10 | 40 | 0 | 30 | 40 | 40 | 50 | 80 | Plant response rating, Pigweed ([11]; visual injury approx. 10 days): 60; Pigweed plant response rating [11]: 80; Plant response rating, Wheat ([12]; visual injury approx. 10 days): 60; Wheat plant response rating [12]: 60; Plant response rating, Corn (corn (Zea mays)): 20; Corn plant response rating (corn (Zea mays)): 50; Plant response rating, Blackgrass [13]: 30; Blackgrass plant response rating [13]: 50; Plant response rating, Galium [14]: 90; Galium plant response rating [14]: 90
3 | COC1CCN(C(=O)c2cc(N(S(=O)(=O)C(F)(F)F)S(=O)(=O)C(F)(F)F)c(C)cc2C)C1 (stereo not shown) [Compound 138] | – | – | – | – | – | – | – | – | – | – | – | – | – | – | – | – | – | – | – | – | Plant response rating, Ragweed [8]: 30; Plant response rating, Ryegrass, Italian [9]: 0; Plant response rating, Pigweed [11]: 90; Plant response rating, Wheat [12]: 30
